The nature of data set [1]: Antiproliferative activity against human KB-VIN cells assessed as reduction in cell viability after 72 hrs by SRB assay. The note with it: KBVIN. In kind it is functional, cell-based. (The SRB assay estimates cell density from bound dye.)
Another data set relates to MDA-MB-231. The data set can be described thus: Antiproliferative activity against human MDA-MB-231 cells assessed as reduction in cell viability measured after 72 hrs by SRB assay. To be noted: MDA-MB-231, 72 h. The format is functional, cell-based.
Another data set concerns KB. The data set can be described thus: Antiproliferative activity against human KB cells assessed as reduction in cell viability measured after 72 hrs by SRB assay. In kind it is functional, cell-based.
Data set [2] relates to Human immunodeficiency virus 1. The data set is described as follows: Antiviral activity against HIV-1 NL4-3 infected in human MT4 cells assessed as reduction in p24 production treated at 48 hrs post-infection and measured on day 4 post-viral infection by ELISA. The note with it: Human immunodeficiency virus 1, NL4-3, MT4. The format is functional, organism-based.
A further data set concerns MRC5. The data set can be described thus: Cytotoxicity against human MRC5 cells assessed as inhibition of cell viability. In kind it is cell-based.
The next data set concerns MCF7. The data set can be described thus: Antiproliferative activity against human MCF7 cells assessed as reduction in cell viability measured after 72 hrs by SRB assay. In kind it is functional, cell-based. The note with it: MCF7, 72 h.
Data set [3] in a line: Selectivity index, ratio of CC75 for cytotoxicity against human MT4 cells to IC50 for antiviral activity against HIV-1 NL4-3 infected in human MT4 cells. The format is toxicity, cell-based. The note with it: read-out: Selectivity Index.
A further data set relates to MT4. The data set can be described thus: Cytotoxicity against human MT4 cells assessed as reduction in cell viability by CellTiter-Glo luminescence assay. The format is cell-based.
The test system of a further data set is A549. The data set is described as follows: Antiproliferative activity against human A549 cells assessed as reduction in cell viability measured after 72 hrs by SRB assay. To be noted: A549, 72 h.

Where only a bound is given, the exact number is not on record here.

For `CCCC(=O)O[C@]12C([C@@H]3C=C(CO)C[C@]4(O)C(=O)C(C)=C[C@H]4[C@@]3(O)[C@H](C)[C@H]1OC(=O)/C=C/c1ccccc1)C2(C)C` (single isomer, unassigned), the half-inhibitory concentration (IC50) – broadly, the concentration needed to halve the response being measured – in [1] is over 10 µM; with MDA-MB-231 it was over 10 µM; in the data set on KB, over 10 µM; in data set [2], 0.0009 µM; in the data set with MRC5 it was 8.71 µM; in the data set on MCF7, over 10 µM. Besides, the IC50 in the data set on A549 was over 10 µM. Further, the selectivity ratio in [3] is over 5000. Further, the CC75 in the data set on MT4 is over 5 µM.

In the case of `CC(=O)O[C@@]12[C@H](OC(=O)/C=C/c3ccccc3)[C@@H](C)[C@@]3(O)[C@@H](C=C(CO)C[C@]4(O)C(=O)C(C)=C[C@@H]34)[C@@H]1C2(C)C`, the IC50 was over 10 µM in data set [1]; over 10 µM in the data set with MDA-MB-231; over 10 µM in the data set on KB; 0.0031 µM in [2]; over 10 µM in the data set on MCF7; over 10 µM in the data set on A549. Moreover, the selectivity ratio in data set [3] is over 1500. Also, the CC75 with MT4 is over 5 µM.

`CC(=O)O[C@@]12[C@H](OC(=O)/C=C/c3ccc(Cl)cc3)[C@@H](C)[C@@]3(O)[C@@H](C=C(CO)C[C@]4(O)C(=O)C(C)=C[C@@H]34)[C@@H]1C2(C)C`: the IC50 was over 10 µM in data set [1]; over 10 µM with MDA-MB-231; over 10 µM in the data set on KB; 0.00075 µM in data set [2]; 7.13 µM with MRC5; over 10 µM with MCF7. Also, in the data set on A549, the IC50 is over 10 µM. Moreover, the selectivity ratio in data set [3] is over 5000. In addition, the CC75 in the data set with MT4 was over 5 µM.

As to `CC/C=C/C/C=C/C/C=C/C/C=C/C/C=C/CCCC(=O)O[C@]12C([C@@H]3C=C(CO)C[C@]4(O)C(=O)C(C)=C[C@H]4[C@@]3(O)[C@H](C)[C@H]1O)C2(C)C` (single isomer, unassigned), the IC50 in data set [1] was over 10 µM; in the data set on MDA-MB-231, 1.99 µM; with KB, over 10 µM; in data set [2], 0.0623 µM; with MCF7 it was over 10 µM; with A549 it was 0.09 µM. Further, in data set [3], the selectivity ratio was over 50. Besides, the CC75 in the data set with MT4 was over 5 µM.

On to `CC/C=C/C/C=C/C/C=C/C/C=C/C/C=C/CCCC(=O)O[C@@H]1[C@@H](C)[C@@]2(O)[C@@H](C=C(CO)C[C@]3(O)C(=O)C(C)=C[C@@H]23)[C@@H]2C(C)(C)[C@]12OC(C)=O`, for which the IC50 is over 10 µM in data set [1]; over 10 µM in the data set with MDA-MB-231; over 10 µM with KB; 0.00046 µM in data set [2]; over 10 µM in the data set with MCF7; over 10 µM in the data set with A549. Further, the selectivity ratio in data set [3] was over 10000. Further, the CC75 in the data set with MT4 is over 5 µM.

Take `CC/C=C/C/C=C/C/C=C/C/C=C/C/C=C/CCCC(=O)O[C@@H]1[C@@H](C)[C@@]2(O)[C@@H](C=C(CO)C[C@]3(O)C(=O)C(C)=C[C@@H]23)[C@@H]2C(C)(C)[C@]12OC(=O)CCC`: the 50% inhibitory concentration (IC50) in data set [1] was over 10 µM; in the data set with MDA-MB-231, over 10 µM; in the data set with KB it was over 10 µM; in data set [2], 0.00227 µM; in the data set on MCF7, over 10 µM; with A549 it was over 10 µM. Besides, the selectivity ratio in [3] was over 1500. Further, in the data set on MT4, the CC75 was over 5 µM.

For `CC1=C[C@H]2[C@@]3(O)[C@H](C)[C@@H](OC(=O)CCc4ccccc4)[C@]4(OC(=O)CCc5ccccc5)[C@H]([C@@H]3C=C(CO)C[C@]2(O)C1=O)C4(C)C`, the IC50 in data set [1] was over 10 µM; in the data set on MDA-MB-231, over 10 µM; in the data set with KB, 8.31 µM; in data set [2], 0.00049 µM; in the data set on MRC5 it was 11.4 µM; in the data set on MCF7, 10.5 µM. Moreover, the IC50 in the data set on A549 is over 10 µM. The selectivity ratio in data set [3] was over 10000. Further, in the data set on MT4, the CC75 is over 5 µM.

Take `CC1=C[C@H]2[C@@]3(O)[C@H](C)[C@@H](OC(=O)/C=C/c4ccccc4)[C@]4(OC(=O)/C=C/c5ccccc5)[C@H]([C@@H]3C=C(CO)C[C@]2(O)C1=O)C4(C)C`: the IC50 in data set [1] came out at 6.82 µM; in the data set on MDA-MB-231, 8.29 µM; in the data set on KB, 6.45 µM; in data set [2] it was 0.00921 µM; with MRC5, 36.2 µM; with MCF7, 6.85 µM. Also, in the data set with A549, the IC50 amounted to 4.7 µM. Also, the selectivity ratio in data set [3] was over 500. Moreover, the CC75 in the data set with MT4 was over 5 µM.

Turning to `CCCC(=O)O[C@]12C([C@@H]3C=C(CO)C[C@]4(O)C(=O)C(C)=C[C@H]4[C@@]3(O)[C@H](C)[C@H]1OC(=O)/C=C/c1ccc(O)c(OC)c1)C2(C)C` (single isomer, unassigned), the half-maximal inhibitory concentration (IC50) in data set [1] is over 10 µM; with MDA-MB-231 it was over 10 µM; in the data set with KB it was over 10 µM; in data set [2] it was 0.0872 µM; in the data set on MCF7, over 10 µM; with A549, over 10 µM. The selectivity ratio in [3] was over 50. Also, the CC75 in the data set on MT4 is over 5 µM.

For `CC1=C[C@H]2[C@@]3(O)[C@H](C)[C@@H](OC(=O)/C=C/c4ccccc4)[C@]4(OC(=O)/C=C/c5ccccc5)[C@H]([C@@H]3C=C(COC(=O)/C=C/c3ccccc3)C[C@]2(O)C1=O)C4(C)C`, the IC50 (in data set [1]; in the data set on MDA-MB-231; with KB; in data set [2]; with MCF7; in the data set on A549) was over 10 µM throughout. In addition, the CC75 in the data set with MT4 is over 5 µM.

On to `CCCCCCCCCCCCCCCCCCCC(=O)O[C@@H]1[C@@H](C)[C@@]2(O)[C@@H](C=C(CO)C[C@]3(O)C(=O)C(C)=C[C@@H]23)[C@@H]2C(C)(C)[C@]12OC(=O)CCCCCCCCCCCCCCCCCCC`, for which the half-maximal inhibitory concentration (IC50) (in data set [1]; with MDA-MB-231; with KB; in [2]; in the data set on MCF7; with A549) was over 10 µM each time. In the data set on MT4, the CC75 was over 5 µM.

As for `C/C=C/C(=O)OCC1=C[C@H]2C3C(C)(C)[C@]3(OC(=O)/C=C/C)[C@H](O)[C@@H](C)[C@]2(O)[C@@H]2C=C(C)C(=O)[C@@]2(O)C1` (single isomer, unassigned), the concentration for half-maximal inhibition (IC50) was over 10 µM in [1]; 6.7 µM with MDA-MB-231; over 10 µM in the data set on KB; over 10 µM in data set [2]; over 10 µM in the data set on MCF7; 6.22 µM in the data set on A549. Further, the CC75 in the data set with MT4 was over 5 µM.

Consider `CCCCCCCCCCCCCCCCCCCC(=O)O[C@]12C([C@@H]3C=C(CO)C[C@]4(O)C(=O)C(C)=C[C@H]4[C@@]3(O)[C@H](C)[C@H]1O)C2(C)C` (single isomer, unassigned), for which the half-inhibitory concentration (IC50) is over 40 µM in data set [1]; 0.21 µM with MDA-MB-231; over 40 µM with KB; 0.0135 µM in [2]; over 10 µM in the data set with MCF7; 0.08 µM in the data set with A549. In data set [3], the selectivity ratio was over 350. For the same molecule, the CC75 in the data set with MT4 is over 5 µM.

Regarding `CC/C=C/C/C=C/C/C=C/C/C=C/C/C=C/CCCC(=O)OCC1=C[C@H]2[C@@H]3C(C)(C)[C@]3(OC(=O)CCC/C=C/C/C=C/C/C=C/C/C=C/C/C=C/CC)[C@H](OC(=O)CCC/C=C/C/C=C/C/C=C/C/C=C/C/C=C/CC)[C@@H](C)[C@]2(O)[C@@H]2C=C(C)C(=O)[C@@]2(O)C1`, the IC50 in [1] is over 40 µM; with MDA-MB-231, 10.1 µM; with KB, over 40 µM; in data set [2], over 10 µM; in the data set on MCF7 it was over 10 µM; in the data set with A549 it was over 10 µM. Further, the CC75 with MT4 is over 5 µM.

(Values after ChEMBL document CHEMBL4808236, “New phorbol ester derivatives as potent anti-HIV agents” (Bioorg Med Chem Lett, 2021).)
